{
  "source": "patent US11243207B2",
  "about": "“Assessing and treating cancer” (Mayo Foundation for Medical Education and Research, priority 2018, dated 2022)",
  "key": {"[1]": {"system": "SSI4 responsive HCC cells", "assay": "Lipid assay, unsaturated fatty acids in HCC cells", "format": "cell-based", "conditions": "1 μM, 48 hour treatment", "procedure": "Cells were treated for 48 hours with 1 μM SSI4 and lipids from 8 million cells were extracted using the 1957 Folch Lipid Extraction method. Lipids were re-suspended in DMSO and analyzed using Cell Biolab's lipid quantitation assay kit. Borosilicate glass tubes and polypropylene tips and plates were used during the experiments. Samples were read at OD540 nm and were background corrected on a Spectramax M3 spectrophotometer."}, "[2]": {"system": "human (CX-004T2 and HUCCT1) cholangiocarcinoma (CCA) cell lines", "assay": "Proliferation of human CCA cell lines", "format": "cell-based", "conditions": "0.1-1 μM, 5 day exposure"}, "[3]": {"system": "SSI-4 responsive HCC cells", "assay": "Soft agar colony formation assay", "format": "cell-based", "procedure": "Soft agar cultures were prepared by diluting 2× growth medium 1:1 in 1.5% Seaplaque GTG agarose with 1000 cells/plate in 6-well culture dishes. Colonies were stained with Giemsa after 3 weeks and colonies larger than 150 μm were counted using Image J software."}, "[4]": {"system": "HLE HCC mouse model", "assay": "HLE HCC mouse model, combination study", "format": "in vivo", "conditions": "10 mg/kg SSI4, 30 mg/kg sorafenib or both", "procedure": "(§1) Tissues were cut into 4×4×4 mm cubes and surgically implanted under anesthesia with 100 μl Matrigel into 4-6 week old athymic nude female mice. Tumors were measured 1 to 2 times per week using calipers and volumes calculated by […]*(L×W×H). Once tumors reached ˜100 mm3, either placebo or SSI-4 treatment was administered at 180, or 600 mg/kg in custom AIN76 animal chow by Research Diets, Inc. Based upon food consumption, the amount of SSI4 ingested was 20 mg/kg and 50 mg/kg, respectively. For the combination study, mice were administered either 10 mg/kg SSI4, 30 mg/kg sorafenib or both in Nutra-gel diet."}, "[5]": {"system": "cMyc, survivin, cyclin D1, cleaved PARP, BIP", "assay": "Western blot analysis of HCC cell lines", "format": "cell-based", "procedure": "Cells were collected via scraping and lysed in RIPA extraction buffer containing protease inhibitor cocktail and phosphatase inhibitor. Protein concentrations were measured by bicinchoninic acid (BCA) assay and 30 μg were loaded on 4-12% Bis-Tris/MES gels and then transferred to 0.2 μm Immobilon-P membranes. The membranes were hybridized overnight at 4° C. with the following antibodies: SCD1, PARP, survivin, c-Myc, BIP and β-actin. Secondary species-specific horseradish peroxidase-labeled antibodies were from Jackson Immunoresearch. Detection was performed using Supersignal chemiluminescence kit."}, "[6]": {"system": "mouse (M1-1a and M6-1b) cholangiocarcinoma (CCA) cell lines", "assay": "Proliferation of mouse CCA cell lines", "format": "cell-based", "conditions": "0.1-1 μM, 5 day exposure"}, "[7]": {"assay": "Seven day oral toxicity test in Sprague Dawley rats", "format": "in vivo, rat", "procedure": "Sprague dawley rats (6-8 weeks old M/F) were orally gavaged with SS1-4 at the indicated dose daily, for a duration of seven days. For each dose levels 3 male and 3 females were placed on study. Rats were clinically observed and weighed daily. On day 8 rats were euthanatized and blood was collected by cardiac puncture. Blood chemistry was measured by STAT Veterinary laboratory."}, "[8]": {"target": "468 kinases", "assay": "Full matrix kinome scan, binding to 468 kinases", "set-up": "species or system human", "procedure": "Kinome Scan was conducted by Lead Hunter Discovery Services"}, "[9]": {"assay": "Single dose pharmacokinetics in fasted male C57BL/6 mice (PO or IV)", "format": "in vivo, mouse", "procedure": "(§2) Pharmacokinetic assessment was performed for SSI-4 administered to fasted male C57BL/6 mice either intravenously (IV) or by oral gavage (PO) in DMSO:PEG400:water (10:70:20) as a clear solution at 5 mg/mL (IV dosing), and 1.3 or 10 mg/mL (respectively for the PO dosing). Serum analysis was performed by LC-MS-MS. PK calculation settings were obtained using the Phoenix WinNonlin 6.3 program, using either the Noncompartmental model 201 (IV bolus input) or Noncompartmental model 200 (extravascular input). Microsomes were isolated from murine liver using Microsome Isolation Kit (BioVision). Each assay (100 μL) contained 50 μg of microsomes, 1 μL of DMSO (for no drug controls) or DMSO-solubilized SCD1 inhibitor, 1 mM reduced NADH, 60 µM coenzyme A, 1 mM ATP, 1 mM DTT, and 5 mM MgCl2 in 100 mM sodium phosphate buffer (pH 7.4). […] To quantify biotransformation of 13C18-stearoyl CoA to 13C18-oleoyl CoA for drug treatments relative to vehicle controls, supernatants were evaluated using the LC/MS2 acyl CoA quantitation method of Magnes et al. and adapting selected reaction monitoring (SRM) for isotope-labeled acyl CoAs. […] SRM signal areas for isotope-labeled acyl CoAs were measured relative to the heptadecanoyl CoA I.S. using XCalibur software, and percent enzyme inhibition determined by comparing 13C18-oleoyl CoA quantities between treatment and DMSO control assays. […]"}, "[10]": {"system": "PAX148 HCC PDTX", "assay": "PAX148 HCC PDTX mouse model", "format": "in vivo", "conditions": "daily SSI-4 20-50 mg/kg oral, high LDHA model", "procedure": "as §1"}, "[11]": {"system": "HCC cell lines", "assay": "Proliferation assay in HCC cell lines", "format": "cell-based", "protocol": "(§3) Cell lines were maintained in DMEM media supplemented with sodium pyruvate, HEPES, non-essential amino acids, 3% FBS and antibiotics. Cells were plated at 30,000 cells per well in 12-well plate and treated for 4-5 days at the indicated doses with SSI4 and sorafenib diluted in DMSO at 1:1000. Cell number was determined by using a Coulter Particle Counter."}, "[12]": {"system": "LIV58 HCC PDTX", "assay": "LIV58 HCC PDTX mouse model", "format": "in vivo", "procedure": "as §1\nFFPE tissues were cut into 5 μm sections, deparaffinized, hydrated, antigen retrieved for 25 minutes at pH 6.0 and blocked for 5 minutes with Dako diluent. Immunostaining was done for 1 hour with either lamin A+C, SCD1, c-Myc, survivin, LDHA, ki67, and BIP primary antibodies. For detection, the Envision Dual Labeled Polymer kit (Dako) was used for 30 minutes for anti-species secondary antibodies and stained with DAB chromagen for 5 minutes. Then, lightly counterstained with Gill I hematoxylin for 30 seconds before dehydration and mounting. Images were obtained at 20× using an Aperio AT2 Scanscope. IHC scoring was done using an algorithm in the Imagescope software based upon signal intensity of weak (1+), moderate (2+) or strong staining (3+) with criteria of at least 20% positivity. H score was calculated based upon signal intensity (0-3) using the formula: [(1+%×1)+(2+%×2)+(3+%×3)]."}, "[13]": {"system": "Normal human hepatocytes (HH) cells", "assay": "Proliferation assay in normal human hepatocytes", "format": "cell-based", "conditions": "1 μM"}, "[14]": {"system": "CX-003 CCA PDTX", "assay": "CX-003 CCA PDTX mouse model (c-Myc negative)", "format": "in vivo", "conditions": "50 mg/kg oral daily", "procedure": "as §1"}, "[15]": {"target": "T1, SCD1 (Mus musculus, UniProt P13516)", "T1 construct": "Each assay (100 μL) contained 50 μg of microsomes; from tissue; host or cells: mouse liver microsomes", "T1 sequence (P13516 1-355)": "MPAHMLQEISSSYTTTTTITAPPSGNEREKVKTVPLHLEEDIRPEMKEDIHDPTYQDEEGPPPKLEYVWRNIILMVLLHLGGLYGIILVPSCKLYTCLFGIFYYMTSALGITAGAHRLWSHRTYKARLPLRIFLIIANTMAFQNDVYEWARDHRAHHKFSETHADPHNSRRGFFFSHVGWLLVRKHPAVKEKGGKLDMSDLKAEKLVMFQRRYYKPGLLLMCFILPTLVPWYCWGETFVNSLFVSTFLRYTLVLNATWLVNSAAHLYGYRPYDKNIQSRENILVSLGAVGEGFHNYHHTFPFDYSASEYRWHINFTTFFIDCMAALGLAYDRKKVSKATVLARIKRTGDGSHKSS", "assay": "Inhibition of oleoyl CoA biosynthesis by mouse liver microsomes (13C18-stearoyl CoA conversion, LC/MS)", "format": "biochemical", "procedure": "as §2, with “Magnes” left out"}, "[16]": {"system": "HLF cells", "assay": "Combination proliferation assay in HLF cells (Chou and Talalay)", "format": "cell-based", "conditions": "in combination with SSI-4", "protocol": "as §3"}},
  "data": [
    {"smiles": "CNC(=O)c1ccnc(NC(=O)N2CCC(Oc3ccccc3Cl)CC2)c1", "note": "[SSI-4, 2-{[4-(2-Chlorophenoxy)piperidine-1-carbonyl]amino}-N-methylpyridine-4-carboxamide]", "values": [
      {"measurement": "levels of unsaturated fatty acids", "setting": "[1]", "value": "decreased"},
      {"measurement": "cell growth", "setting": "[2]", "value": "growth inhibition"},
      {"measurement": "colony formation in soft agar", "setting": "[3]", "value": "decreased colony formation"},
      {"measurement": "in vivo tumor response over time", "setting": "[4]", "value": "escape over time on therapy"},
      {"measurement": "ER stress (BIP)", "setting": "[5]", "value": "inducing"},
      {"measurement": "Wnt regulated genes (cMyc, survivin and cyclin D1) protein", "setting": "[5]", "value": "down-regulated"},
      {"measurement": "apoptosis (cleaved PARP)", "setting": "[5]", "value": "inducing apoptosis"},
      {"measurement": "cell growth", "setting": "[6]", "value": "growth inhibition"},
      {"measurement": "blood chemistries", "setting": "[7]; day 8", "value": "in normal range"},
      {"measurement": "toxicity", "setting": "[7]; male or female rats, daily oral for seven days", "value": "Little to no toxicity"},
      {"measurement": "weight loss", "setting": "[7]; males, 300 mg/kg", "value": 6, "unit": "%"},
      {"measurement": "kinases found to bind (of 468)", "setting": "[8]; SSI-4 at 10 nM", "value": "none"},
      {"measurement": "kinases found to bind (of 468)", "setting": "[8]; SSI-4 at 100 nM, kinase bound is CDKL2", "value": 1},
      {"measurement": "half-life", "setting": "[9]; male, C57BL/6, mouse, serum, following a single oral dose", "value": "3 to 4", "unit": "h"},
      {"measurement": "oral bioavailability", "setting": "[9]; single dose, mice", "value": "excellent oral bioavailability"},
      {"measurement": "antitumor response (tumor volume)", "setting": "[10]", "value": "highly sensitive"},
      {"measurement": "proliferation response in HCC cells silenced for cMyc with shRNA", "setting": "[11]; 1 uM SSI-4, c-Myc 1657 shRNA", "value": "blunted response"},
      {"measurement": "IC50", "setting": "[11]; other (non-responsive) HCC cell lines", "value": "≥ 10", "unit": "µM"},
      {"measurement": "BIP, biomarker of ER stress (IHC)", "setting": "[12]; LIV58 tumors", "value": "upregulated"},
      {"measurement": "Ki-67, survivin and cMyc (IHC)", "setting": "[12]; LIV58 tumors", "value": "attenuated"},
      {"measurement": "antitumor response (tumor volume)", "setting": "[12]; daily SSI-4 20-50 mg/kg oral, low LDHA model", "value": "~30", "unit": "%"},
      {"measurement": "growth inhibition", "setting": "[13]", "value": "not growth inhibited"},
      {"measurement": "antitumor response (tumor volume)", "setting": "[14]", "value": "no response"},
      {"measurement": "IC50", "setting": "[15]", "value": 0.0019, "unit": "µM"}
    ]},
    {"smiles": "CNC(=O)c1cc(Oc2ccc(NC(=O)Nc3ccc(Cl)c(C(F)(F)F)c3)c(F)c2)ccn1", "note": "[Regorafenib]", "values": [
      {"measurement": "synergy by Chou and Talalay method", "setting": "[16]", "value": "exhibited synergy"}
    ]},
    {"smiles": "CNC(=O)c1cc(Oc2ccc(NC(=O)Nc3ccc(Cl)c(C(F)(F)F)c3)cc2)ccn1", "note": "[sorafenib, reference compound]", "values": [
      {"measurement": "in vivo tumor response over time", "setting": "[4]", "value": "escape over time on therapy"},
      {"measurement": "IC50", "setting": "[11]; all cell lines tested", "value": "1.7 to 6.4", "unit": "µM"}
    ]}
  ]
}
